From patent US9777106B2, “Bisphenol polymer precursor replacements” (CASE WESTERN RESERVE UNIVERSITY, priority 2013, dated 2017)

Legend:
[1] = test system: mouse embryonic stem cell line (endothelial differentiation reporter); test: Endothelial differentiation assay in reporter mouse embryonic stem cell line (green fluorescent protein readout); format: cell-based; conditions: FIG. 1; for effect on estrogen receptor function: reporter cell line; for effect on cell (endothelial) differentiation: reporter mouse embryonic stem cell line, cells differentiated after incubation
Description: Bisphenols have come under increasing scrutiny due to their capacity to mimic estrogen in biological systems, resulting in numerous health complications. Specifically these effects have been observed in endothelial cell differentiation. Bredhult et al., “Gene expression analysis of human endometrial endothelial cells exposed to Bisphenol A,” Reproductive toxicology (Elmsford, N.Y 28, 18-25 (2009). Long et al., Experimental biology and medicine, 226, 477-483 (2001). Accordingly, experiments have been carried out to evaluate the cytotoxicity and differentiation effect of a biologically derived bisphenol polymer precursor replacement. Resveratrol and bisphenol A were incubated with mouse embryonic stem cells and evaluated for cytotoxicity and apoptosis. Cells were then differentiated and evaluated for effect on endothelial differentiation. […] Further studies are planned to test further stages of resveratrol epoxidization. The inventor's lab has developed a mouse embryonic stem cell line capable of providing a quantitative readout of endothelial differentiation due to expression of a green fluorescent protein. Using these and similar cell lines we have been able to assay the effect of new molecules on cell proliferation, death, apoptosis, and endothelial differentiation. Robilotto et al., Dalton Transactions, 40(32): 8083-5 (2011). This cell line will be used to determine the biological effect of the newly proposed polymers as compared to the effect of benchmark controls. Protocols similar to those previously published can be used to determine the biocompatibility of the new polymers as compared to that of benchmark resin, evaluating the capacity of mouse embryonic stem cells to proliferate, their rate of cell death by toxicity or apoptosis, and their capacity to differentiate into […]. Kim et al., Tissue engineering, 15, 3709-3718 (2009); Kim et al., Tissue engineering, 16, 1065-1074 (2010).

[2] = test system: mouse embryonic stem cells; test: Cytotoxicity and apoptosis assay (annexin-V / 7-AAD) in mouse embryonic stem cells; format: cell-based; conditions: incubated with mouse embryonic stem cells; FIG. 1
Description: Bisphenols have come under increasing scrutiny due to their capacity to mimic estrogen in biological systems, resulting in numerous health complications. Specifically these effects have been observed in endothelial cell differentiation. Bredhult et al., “Gene expression analysis of human endometrial endothelial cells exposed to Bisphenol A,” Reproductive toxicology (Elmsford, N.Y 28, 18-25 (2009). Long et al., Experimental biology and medicine, 226, 477-483 (2001). Accordingly, experiments have been carried out to evaluate the cytotoxicity and differentiation effect of a biologically derived bisphenol polymer precursor replacement. Resveratrol and bisphenol A were incubated with mouse embryonic stem cells and evaluated for cytotoxicity and apoptosis. Cells were then differentiated and evaluated for effect on endothelial differentiation. […]
The procedure for testing toxicity was and can be carried out as follows. […] 100,000 E14 cells were added to a 10 cm plate, covered with 1, 10 and 100 mg of polymer sample, and incubated for 48 hours followed by application of the MTT dye solutions and measurement of absorbance at 570 nm.
The number of apoptotic cells are quantified using an annexin-V apoptosis staining kit with 7-Amino-actinomycin D (7-AAD) vital stain (AnnexinV—PE Apoptosis Detection Kit; BD Biosciences Pharmingen, San Diego, Calif.). […]

CC(C)(c1ccc(O)cc1)c1ccc(O)cc1 [bisphenol A]
effect on estrogen receptor function [1]: clearly interferes with estrogen receptor function
effect on estrogen receptor function ([1]; listed as BPA): interferes estrogen receptor function
effect on cell (endothelial) differentiation [1]: negatively effects cell differentiation
effect on cell (endothelial) differentiation ([1]; listed as BPA): negatively impacts cell differentiation
over toxicity using the apoptosis assay [2]: relatively indistinguishable

Oc1ccc(C=Cc2cc(O)cc(O)c2)cc1 [Resveratrol, resveratrol]
effect on estrogen receptor function [1]: little to no impact on estrogen receptor function
effect on cell (endothelial) differentiation [1]: comparable to negative controls
over toxicity using the apoptosis assay [2]: relatively indistinguishable
